21 compounds from patent US20250025438A1, “Derivative of aspartic acid and use thereof in treatment of metabolic diseases such as hepatic fibrosis and non-alcoholic hepatitis” (SHENZHEN JINGTAI TECHNOLOGY CO., LTD., priority 2021, published 2025) can be followed below.

Structures can show the parent of a compound that is named as a salt. Where a SMILES comes first, the peptide text is derived from it.

Holding throughout (format): cell-based
One test has as its system α-SMA. Nature of the test: In vitro efficacy in semi-activated LX2 cells, qPCR: α-SMA. To be noted: 48 hours, Q-PCR; for inhibition of the expression of α-SMA at the mRNA level: Table 2; for inhibition at 100 µM: test concentration 100 μM; for inhibition at 100 µM / inhibition at 50 µM / inhibition at 12.5 µM: read-out: α-SMA mRNA inhibition rate. As to the method:
(§1) Test compounds were added to the LX-2 cells respectively, and total RNA in the cells was extracted 48 hours later. This experiment was performed strictly in accordance with the instructions of the Total RNA Kit. The steps were as follows (note: this experiment was performed on ice throughout the entire process, and special RNase-free tips were used throughout the entire process): • 1) The 12-well cell culture plate was taken out from the incubator, the cell culture medium was discarded, the cells were washed twice with 1 mL of 1×PBS, and a negative pressure suction device was used to fully remove PBS; • 2) 350 μL of TRK Lysis Buffer mixture/well was prepared as needed (mixture preparation method: 1 mL of TRKLysis Buffer+20 μL of β-mercaptoethanol), vortexed and mixed well. 350 μL was added to each well of the 12-well cell culture plate, and allowed to stand at room temperature for 5 minutes to fully lyse the cells; • 3) 70% ethanol/well was prepared as needed, vortexed and mixed well. 350 μL was added to each well of the 12-well cell culture plate, mixed well by shaking, and transferred to the spin column (spin column+collection tube were assembled); • 4) Centrifugation was performed at 4° C., 12000 g for 60 sec. The waste liquid was discarded after centrifugation, while the spin column was kept; • 5) 500 μL of RNA Wash Buffer I was added, centrifuged at 4° C., 12000 g for 60 sec, the waste liquid was discarded after centrifugation, and the collection column was kept; • 6) 500 μL of RNA Wash Buffer II (confirmed that ethanol had been added) was added, centrifuged at 4° C., 12000 g for 60 sec, the waste liquid was discarded after centrifugation, and the collection column was kept; • 7) step 6) was repeated once again, centrifugation was performed at 4° C., 12000 g for 90 sec, the waste liquid was discarded after centrifugation, and the collection column was kept; • 8) Centrifugation was performed at 4° C., 12000 g for 120 sec to ensure that the spin column was fully dried; • 9) The dried spin column was inserted into a new 1.5 mL EP tube, and 30 μL of DEPC water was added to the membrane in the center of the spin column. It should be careful not to touch the EP tube cover in this step. It was allowed to stand at room temperature for 5 minutes to ensure that the RNA was fully dissolved in DEPC water. Centrifugation was performed at 4° C., 12000 g for 60 sec, and the EP tube was kept; • 10) NanoDrop ultra-micro-volume spectrophotometer was used to detect RNA concentration;
(§2) 5.2 Reverse transcription of RNA into cDNA: According to the instructions of PrimeScript™ RT reagent Kit (Perfect Real Time), the specific experimental steps were as follows:
(§3) 5.3 Q-PCR detection of target gene expression: According to the instructions of Power SYBR® Green PCR Master Mix, the specific operations were as follows:
(§4) After the reaction was completed, the amplification curve and dissolution curve of Q-PCR were confirmed, and the relative quantification method ([…]) was used to perform data analysis on the experimental results.
(§5) LX2 cells were passaged and plated normally. […] After 48 hours, the cells were collected, total RNA was extracted, and Q-PCR was used to detect the changes in the mRNA expression levels of liver fibrosis-related genes (ACTA2 encoding α-SMA, COL1A1 and COLIA2 encoding collagen I, COL3A1 encoding collagen III, SMAD3 encoding Smad3) and inflammation-related genes (IL1β encoding IL-1β, TNFα encoding TNFα) (for specific methods, see 5. Q-PCR detection of target gene expression as described above). α-SMA was a marker of hepatic stellate cell activation, and collagen I and collagen III were the main components of extracellular matrix deposition.
Background: Real-time PCR tracks product formation cycle by cycle.

The test system of a further test is COL3A1. Nature of the test: In vitro efficacy in semi-activated LX2 cells, qPCR: COL3A1. Conditions: 48 hours, Q-PCR; for inhibition at 100 µM: LX-2, test concentration 100 μM; for inhibition at 50 µM: LX-2, 50 µM; for inhibition at 12.5 µM: LX-2, test concentration 12.5 μM. As for the experimental part: as §1, §2, §3, §4, §5
A further test concerns COL1A1. As to the kind of experiment: In vitro efficacy in semi-activated LX2 cells, qPCR: COL1A1. Conditions: 48 hours, Q-PCR; for inhibition at 100 µM: LX-2, test concentration 100 μM; for inhibition at 12.5 µM: LX-2, test concentration 12.5 μM; for inhibition at 50 µM: LX-2, 50 µM. As for the experimental part:
as §1, §2, §3, §4, §5

Test [1] concerns collagen I and collagen III. As to the kind of experiment: Semi-activated LX2 cells, qPCR: collagen I and collagen III at the mRNA level. To be noted: 48 hours, Q-PCR, Table 2. As for the experimental part: as §1, §3
LX2 cells were passaged and plated normally. After adherent growth for 12 hours, 50 µM of the test compound was added. After 48 hours, the cells were collected, total RNA was extracted, and Q-PCR was used to detect the changes in the mRNA expression levels of liver fibrosis-related genes (ACTA2 encoding α-SMA, COL1A1 and COLIA2 encoding collagen I, COL3A1 encoding collagen III, SMAD3 encoding Smad3) and inflammation-related genes (IL1β encoding IL-1β, TNFα encoding TNFα) (for specific methods, see 5. Q-PCR detection of target gene expression as described above). α-SMA was a marker of hepatic stellate cell activation, and collagen I and collagen III were the main components of extracellular matrix deposition. […]

For a further test, the system named is Smad3. Nature of the test: In vitro efficacy in semi-activated LX2 cells, qPCR: Smad3. To be noted: 48 hours, Q-PCR; for inhibition at 50 µM: LX-2, 50 µM. As to the method: as §1, §2, §3, §4, §5
Where [2] appears, read: Homo sapiens, read-out: COL3A1 mRNA inhibition rate.
[3] abbreviates: Homo sapiens, read-out: COL1A1 mRNA inhibition rate.
Where [4] appears, read: Homo sapiens, read-out: Smad3 mRNA inhibition rate.

By inhibition is commonly meant how much of the control response was suppressed. Take `COC(=O)C[C@H](N)C(=O)OC(C)OC(=O)[C@@H](N)CC(=O)OC` [Compound 68, O′1,O1-(ethan-1,1-diyl)4-dimethyl (2S,2'S)-bis (2-aminosuccinate) hydrochloride]: in the test on α-SMA, the “inhibition of the expression of α-SMA at the mRNA level” value (“inhibition of the expression of α-SMA” for short) was “could inhibit”. The inhibition at 100 µM lay within 25 to 50% in the test with α-SMA, 1 to 10% in the test on COL3A1 (setting [2]) and 1 to 10% in the test on COL1A1 (setting [3]).

For `CCOC(=O)C[C@H](N)C(=O)OCOC(=O)[C@@H](N)CC(=O)OCC` [Compound 72, hydrochloride], the inhibition at 25 µM in the test with COL3A1 (Homo sapiens, LX-2, test concentration 25 μM, read-out: COL3A1 mRNA inhibition rate) was 25 to 50%; with COL1A1 (Homo sapiens, LX-2, test concentration 25 μM, read-out: COL1A1 mRNA inhibition rate) it was 25 to 50%. For the same compound, in test [1], the “inhibition of the expression of collagen I and collagen III at the mRNA level” value was “could inhibit”.

For `COC(=O)C[C@H](NC(=O)[C@H](C)N)C(=O)O` [Compound 67, (S)-2-((S)-2-aminopropionamido)-4-methoxy-4-oxobutyric acid hydrochloride] (HELM PEPTIDE1{A.D}|CHEM1{[CO[*:1]]}$PEPTIDE1,CHEM1,2:R3-1:R1$$$V2.0), the inhibition at 50 µM with COL3A1 (setting [2]) lay in the range of 1 to 10%.

As for `COC(=O)C[C@H](N)C(=O)OCOC(=O)[C@@H](N)CC(=O)OC(C)C` [Compound 71, 1-((((S)-2-amino-4-isopropoxy-4-oxobutyryl)oxy)methyl) 4-methyl L-aspartic acid ester hydrochloride], the inhibition at 12.5 µM was in the range of 1 to 10% with COL3A1 (setting [2]) and 10 to 25% with COL1A1 (setting [3]). Moreover, the “inhibition of the expression of collagen I and collagen III at the mRNA level” value in test [1] is “could inhibit”.

`CC(C)OC(=O)OCOC(=O)[C@@H](N)CC(=O)O` [Compound 51, 1-(((isopropoxycarbonyl)oxy)methyl) L-aspartic acid ester hydrochloride]: the inhibition at 50 µM with α-SMA fell in the range of 1 to 10%.

Take `COC(=O)C[C@H](N)C(=O)OCOC(=O)C[C@H](N)C(=O)OC.Cl` [Compound 74, 4-((((S)-2-amino-4-methoxy-4-oxobutyryl)oxy)methyl)1-methyl L-aspartic acid ester hydrochloride]: the inhibition at 100 µM with α-SMA, with COL3A1 (setting [2]) and in the test with COL1A1 (setting [3]) was 25 to 50% throughout. Further, the “inhibition of the expression of collagen I and collagen III at the mRNA level” value in test [1] is reported as “could inhibit”.

In the case of `CC(C)OC(=O)C[C@H](N)C(=O)OCOC(=O)[C@@H](N)CC(=O)OC(C)C` [Compound 73, 4-diisopropyl O′1,O1-methylene (2S,2'S)-bis (2-aminosuccinate) hydrochloride], the “inhibition of the expression of α-SMA” value in the test on α-SMA is reported as “could inhibit”. The inhibition at 12.5 µM in the test with α-SMA (test concentration 12.5 μM) was 10 to 25%.

On to `CC(C)(C)OC(=O)N[C@@H](CC(=O)OCc1ccccc1)C(=O)O` [Compound 24], for which the inhibition at 50 µM in the test on COL3A1 (setting [2]) and with COL1A1 (setting [3]) was 1 to 10% throughout.

For the compound `COC(=O)[C@H](CC(=O)O)NC(C)=O` [Compound 65, 1-methyl acetyl-L-aspartic acid ester], the inhibition at 12.5 µM fell in the range of 1 to 10% in the test with α-SMA (test concentration 12.5 μM), 1 to 10% in the test on COL3A1 (setting [2]) and 10 to 25% in the test on COL1A1 (setting [3]).

`COC(=O)[C@H](Cc1ccccc1)NC(=O)C[C@H](N)C(=O)O` [Compound 32]: the inhibition at 50 µM with α-SMA was 1 to 10%; with COL3A1 (setting [2]), 1 to 10%; in the test on COL1A1 (setting [3]), 10 to 25%.

Regarding `N[C@@H](CC(=O)O)C(=O)OCc1ccccc1` [Compound 20], in the test on Smad3 (test concentration 12.5 μM), the “Smad3 mRNA inhibition rate” value is reported as “E (E represented that the inhibition rate was 1% to 10%)”. The “α-SMA mRNA inhibition rate” value in the test on α-SMA (test concentration 12.5 μM) is “E (E represented that the inhibition rate was 1% to 10%)”. Moreover, the “COL3A1 mRNA inhibition rate” value in the test on COL3A1 (test concentration 12.5 μM) is on record as “E (E represented that the inhibition rate was 1% to 10%)”. Further, in the test with COL1A1 (test concentration 12.5 μM), the “COL1A1 mRNA inhibition rate” value is “E (E represented that the inhibition rate was 1% to 10%)”.

For `N[C@@H](CC(=O)NC(c1ccccc1)(c1ccccc1)c1ccccc1)C(=O)O` [Compound 27], in the test on Smad3 (setting [4]), the inhibition at 50 µM lay within 1 to 10%.

Regarding `CCC(=O)N[C@@H](CC(=O)O)C(=O)OC` [Compound 66, 1-methyl propionyl-L-aspartic acid ester], the “inhibition of the expression of collagen I and collagen III at the mRNA level” value in test [1] is listed as “could inhibit”. Besides, the inhibition at 50 µM in the test with COL1A1 (setting [3]) was in the range of 25 to 50%.

Consider `CCOC(=O)C[C@H](N)C(=O)OCOC(=O)[C@@H](N)CC(=O)OC` [Compound 70, 1-((((S)-2-amino-4-ethoxy-4-oxobutyryl)oxy)methyl) 4-methyl L-aspartic acid ester hydrochloride], for which the “inhibition of the expression of α-SMA” value with α-SMA is on record as “could inhibit”. Besides, the inhibition at 100 µM fell in the range of 50 to 75% in the test on α-SMA, 10 to 25% in the test with COL3A1 (setting [2]) and 1 to 10% in the test on COL1A1 (setting [3]). Further, the “inhibition of the expression of collagen I and collagen III at the mRNA level” value in test [1] was “could inhibit”.

As for `C[C@@H](NC(=O)[C@@H](N)CC(=O)O)C(=O)NC1C(C)(C)SC1(C)C` [Compound 38], the inhibition at 50 µM fell in the range of 1 to 10% with COL3A1 (setting [2]) and 25 to 50% with COL1A1 (setting [3]). In addition, the “inhibition of the expression of collagen I and collagen III at the mRNA level” value in test [1] is reported as “could inhibit”.

In the case of `COC(=O)C[C@H](NC(C)=O)C(=O)O` [Compound 63, 4-methyl acetyl-L-aspartic acid ester], the inhibition at 50 µM with α-SMA was in the range of 1 to 10%; in the test with COL3A1 (setting [2]), 10 to 25%. Further, the “inhibition of the expression of collagen I and collagen III at the mRNA level” value in test [1] was “could inhibit”.

As to `COC(=O)[C@H](CC(=O)O)NC(=O)OCc1ccccc1` [Compound 25], the inhibition at 50 µM in the test with α-SMA and in the test on COL1A1 (setting [3]) was 1 to 10% throughout.

For the compound `N[C@H](C(=O)O)[C@@H](N)C(=O)O` [Compound 43], the inhibition at 50 µM in the test with Smad3 (setting [4]), in the test with α-SMA and with COL3A1 (setting [2]) was 1 to 10% in each case.

`O=C(O)C[C@H](NC(=O)C1CC1)C(=O)O` [Compound 60, (cyclopropylcarbonyl)-L-aspartic acid]: the inhibition at 50 µM in the test with Smad3 (setting [4]) and with α-SMA was 1 to 10% in each case.

In the case of `N[C@@H](CC(=O)O)C(=O)OCOC(=O)[C@@H](N)CC(=O)O` [Compound 57, (3S,3'S)-4,4′-(methylenebis (oxy))bis (3-amino-4-oxobutyric acid) hydrochloride], the inhibition at 25 µM with Smad3 (Homo sapiens, LX-2, test concentration 25 μM, read-out: Smad3 mRNA inhibition rate) was in the range of 1 to 10%.

With `CCOC(=O)C[C@H](N)C(=O)O` [Compound 35, 4-ethyl L-aspartic acid ester], the inhibition at 50 µM with COL3A1 (setting [2]) is 1 to 10%; in the test with COL1A1 (setting [3]), 10 to 25%. In addition, the “inhibition of the expression of collagen I and collagen III at the mRNA level” value in test [1] is given as “could inhibit”.
